According to ChEMBL document CHEMBL1130514, “Design and synthesis of conformationally constrained arginal thrombin inhibitors” (Bioorg Med Chem Lett, 1997):
Where a SMILES comes first, the peptide text is derived from it. [ ]: non-standard residue; d: D form. The star is where a group is joined. dNMePhg = CN[C@@H](C(=O)O)c1ccccc1; PhAc = O=C(Cc1ccccc1)*

What was measured:
Plasminogen = Plasminogen (Homo sapiens, UniProt P00747); assay: In vitro ability to inhibit the activity of Plasmin
Serine protease 1 = biological target: T1, Serine protease 1 (Bos taurus, UniProt P00760); assay: In vitro ability to inhibit the activity of Trypsin
T1 sequence (P00760 whole entry): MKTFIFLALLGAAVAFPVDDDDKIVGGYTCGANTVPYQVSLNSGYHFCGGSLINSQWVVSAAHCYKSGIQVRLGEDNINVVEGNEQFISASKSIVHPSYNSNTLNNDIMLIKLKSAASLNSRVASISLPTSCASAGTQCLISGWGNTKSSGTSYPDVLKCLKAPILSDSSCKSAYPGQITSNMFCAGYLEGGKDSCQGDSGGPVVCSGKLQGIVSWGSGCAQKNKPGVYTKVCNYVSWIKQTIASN

Prothrombin = Prothrombin (Homo sapiens, UniProt P00734); assay: In vitro ability to inhibit the activity of human alpha Thrombin

Plasminogen, sequence (P00747 97-580 limits assumed): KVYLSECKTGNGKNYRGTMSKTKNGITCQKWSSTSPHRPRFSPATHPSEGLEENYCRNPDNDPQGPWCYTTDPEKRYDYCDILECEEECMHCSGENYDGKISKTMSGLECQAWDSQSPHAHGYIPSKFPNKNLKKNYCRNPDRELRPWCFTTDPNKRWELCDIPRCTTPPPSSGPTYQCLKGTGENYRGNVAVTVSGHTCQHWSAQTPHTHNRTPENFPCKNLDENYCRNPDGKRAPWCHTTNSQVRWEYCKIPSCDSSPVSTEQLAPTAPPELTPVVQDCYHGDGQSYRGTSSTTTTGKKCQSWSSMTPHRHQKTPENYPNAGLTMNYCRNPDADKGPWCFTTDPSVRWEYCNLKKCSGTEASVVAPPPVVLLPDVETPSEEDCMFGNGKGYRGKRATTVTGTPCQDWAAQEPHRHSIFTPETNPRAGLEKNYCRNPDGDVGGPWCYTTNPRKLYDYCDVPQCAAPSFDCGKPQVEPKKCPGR
Plasminogen, sequence (P00747 581-810 limits assumed): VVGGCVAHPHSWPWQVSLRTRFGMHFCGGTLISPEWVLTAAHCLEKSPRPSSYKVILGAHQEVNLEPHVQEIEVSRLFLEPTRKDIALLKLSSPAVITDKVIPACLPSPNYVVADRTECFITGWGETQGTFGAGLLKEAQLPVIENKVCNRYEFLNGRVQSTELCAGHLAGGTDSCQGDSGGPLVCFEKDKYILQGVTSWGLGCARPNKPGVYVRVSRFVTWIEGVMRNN

Structure (SMILES) | IC50 (Plasminogen) [µM] | IC50 (Serine protease 1) [µM] | IC50 (Prothrombin) [µM]
CN[C@H](Cc1ccccc1)C(=O)N1CCC[C@H]1C(=O)N[C@H](C=O)CCCN=C(N)N | 0.5 | 0.02 | 
CC(=O)N[C@@]1(Cc2ccccc2)CC[C@H]2CC[C@@H](C(=O)N[C@H]3CCCN(C(=N)N)C3O)N2C1=O (stereo partly specified) |  |  | 3.9
CC1CNc2c(cccc2S(=O)(=O)N[C@H]2CCC[C@H]3CC[C@@H](C(=O)N[C@H]4CCCN(C(=N)N)C4O)N3C2=O)C1 (stereo partly specified) | 1.04 | 0.1 | 0.018
N=C(N)N1CCC[C@H](NC(=O)[C@@H]2CC[C@@H]3CCC(Cc4ccccc4)C(=O)N32)C1O (stereo partly specified) |  |  | 4.6
N=C(N)N1CCC[C@H](NC(=O)[C@@H]2CC[C@@H]3CCC[C@H](NS(=O)(=O)Cc4ccccc4)C(=O)N32)C1O (stereo partly specified) | 10 |  | 0.11
CC(=O)N[C@H]1CCC[C@H]2CC[C@@H](C(=O)N[C@H]3CCCN(C(=N)N)C3O)N2C1=O (stereo partly specified) | 74 | 24 | 4.3
N=C(N)N1CCC[C@H](NC(=O)[C@@H]2CC[C@@H]3CCC[C@H](NS(=O)(=O)c4cccc5ccccc45)C(=O)N32)C1O (stereo partly specified) | 10 |  | 0.11
N=C(N)N1CCC[C@H](NC(=O)[C@@H]2CC[C@@H]3CCCC(Cc4ccccc4)C(=O)N32)C1O (stereo partly specified) |  |  | 1.4
CN[C@@H](C(=O)N1CCC[C@H]1C(=O)N[C@H](C=O)CCCNC(=N)N)c1ccccc1 (H-[dNMePhg]-Pro-Arg-aldehyde) |  |  | 0.026
N=C(N)NCCC[C@@H](C=O)NC(=O)[C@@H]1CCCN1C(=O)Cc1ccccc1 (PhAc-Pro-Arg-aldehyde) | 41 | 7.2 | 1.6
CC1CNc2c(cccc2S(=O)(=O)N[C@@H](CCCNC(=N)N)C(=O)N2CCC(C)C[C@@H]2C(=O)O)C1 (single isomer, unassigned) [ARGATROBAN] | 800 | 5 | 
